{
  "source": "patent US10189809B2",
  "about": "“SGC stimulators” (Ironwood Pharmaceuticals, Inc., priority 2010, dated 2019)",
  "key": {"[1]": {"target": "soluble guanylate cyclase (sGC) (Homo sapiens (Human), UniProt Q02108+Q02153)", "sequence (Q02153 whole entry)": "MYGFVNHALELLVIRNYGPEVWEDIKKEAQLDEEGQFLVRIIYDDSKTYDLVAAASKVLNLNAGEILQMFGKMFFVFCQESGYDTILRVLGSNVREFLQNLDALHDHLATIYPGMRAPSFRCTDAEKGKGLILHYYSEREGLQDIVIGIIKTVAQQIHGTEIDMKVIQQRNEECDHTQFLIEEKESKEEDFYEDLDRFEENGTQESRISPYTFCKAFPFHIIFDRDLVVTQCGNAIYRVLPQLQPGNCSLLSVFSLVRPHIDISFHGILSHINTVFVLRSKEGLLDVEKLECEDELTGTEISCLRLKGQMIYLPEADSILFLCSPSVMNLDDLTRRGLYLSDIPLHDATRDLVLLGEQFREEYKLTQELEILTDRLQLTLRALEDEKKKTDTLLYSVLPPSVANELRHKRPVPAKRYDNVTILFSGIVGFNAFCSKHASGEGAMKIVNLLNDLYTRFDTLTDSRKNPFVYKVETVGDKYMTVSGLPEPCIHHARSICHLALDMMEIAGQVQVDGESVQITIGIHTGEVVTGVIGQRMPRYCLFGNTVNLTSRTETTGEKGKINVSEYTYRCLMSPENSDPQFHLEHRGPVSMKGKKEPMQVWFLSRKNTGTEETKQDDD", "sequence (Q02108 whole entry)": "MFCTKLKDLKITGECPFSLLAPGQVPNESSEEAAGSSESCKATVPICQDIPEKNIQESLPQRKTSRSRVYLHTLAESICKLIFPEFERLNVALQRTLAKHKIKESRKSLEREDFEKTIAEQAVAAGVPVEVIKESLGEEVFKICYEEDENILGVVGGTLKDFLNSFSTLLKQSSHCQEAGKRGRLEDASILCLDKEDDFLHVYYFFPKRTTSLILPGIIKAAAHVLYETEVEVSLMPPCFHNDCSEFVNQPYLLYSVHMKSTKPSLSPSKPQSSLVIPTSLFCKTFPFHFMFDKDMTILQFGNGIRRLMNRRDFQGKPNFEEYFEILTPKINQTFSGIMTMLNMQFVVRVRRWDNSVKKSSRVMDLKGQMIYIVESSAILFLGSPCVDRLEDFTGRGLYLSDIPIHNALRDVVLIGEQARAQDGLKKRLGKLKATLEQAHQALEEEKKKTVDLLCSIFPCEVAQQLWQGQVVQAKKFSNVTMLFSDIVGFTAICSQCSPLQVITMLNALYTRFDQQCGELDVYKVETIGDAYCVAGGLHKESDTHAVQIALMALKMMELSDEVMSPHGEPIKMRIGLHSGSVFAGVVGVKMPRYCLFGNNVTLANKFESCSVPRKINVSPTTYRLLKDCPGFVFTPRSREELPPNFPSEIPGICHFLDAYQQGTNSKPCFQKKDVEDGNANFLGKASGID", "experiment": "sGC-HEK-cGMP assay run with SNP incubation (HEK WC assay)", "assay_type": "cell-based", "method_in_brief": "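EC50 values derive from concentration-response curves of intracellular cGMP in HEK293 cells, which express sGC endogenously. Compound and sodium nitroprusside were co-incubated 10 min at 37 °C after a 15-min 0.5 mM IBMX step, with 0.1 M HCl lysis and 1% DMSO vehicle.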"}, "[2]": {"target": "T1, Human soluble guanylate cyclase enzyme (hsGC) (Homo sapiens (Human), UniProt Q02108+Q02153)", "T1 sequence (Q02153 whole entry)": "as the sequence (Q02153 whole entry) above", "T1 sequence (Q02108 whole entry)": "as the sequence (Q02108 whole entry) above", "experiment": "Purified human sGC enzyme activity assay", "assay_type": "biochemical", "settings": "for sGC Enzyme (fold increase at 30 μM) / sGC Enzyme (fold increase at 30 μM without SNP) / sGC Enzyme (specific activity at 30 μM): 30 μM compound; for sGC Enzyme (fold increase at 30 μM): without the addition of SNP; for sGC Enzyme (fold increase at 10 μM without SNP) / sGC Enzyme (specific activity at 10 μM): 10 μM compound", "method_in_brief": "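Values are fold-change of sGC specific activity, nmoles cGMP per mg enzyme per min, relative to DMSO controls. Reactions: 5 ng human enzyme, 300 μM GTP, 1 mM IBMX, 2 mM MgCl2/DTT, 0.1 M Tris pH 8.0, compound 10 or 30 μM final, 37° C for 30 minutes, methanol quench. cGMP read against a 0.078-10 μM final standard curve.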"}, "[3]": {"target": "T1, Human soluble guanylate cyclase enzyme (hsGC)", "experiment": "Purified human sGC enzyme synergy assay in the presence of 1 μM sodium nitroprusside (SNP)", "assay_type": "biochemical", "settings": "for sGC Enzyme (fold increase at 30 μM with SNP): 30 μM compound; for sGC Enzyme (fold increase at 10 μM with SNP): 10 μM compound", "procedure": "Human soluble guanylate cyclase enzyme (hsGC) obtained from Enzo Inc. (P/N: ALX-201-177) was used to evaluate the activity of test compounds. The assay reactions contained 0.1 M Tris (pH 8.0), 0.5 mg/mL BSA (pH 8.0), 2 mM DTT, 2 mM MgCl2, 300 μM GTP, 1 mM 3-isobutyl-1-methylxanthine (IBMX) and 5 ng human soluble guanylate cyclase enzyme. Test compounds in DMSO were then added (2 μL, 10 or 30 μM final concentration) and incubated (200 μL, 96-well plate format) at 37° C. for 30 minutes. The controls were carried out using 2 μL DMSO. After the 30 minute incubation, the reaction was stopped with the addition of 200 μL of cold methanol. The plate was then centrifuged at 3,200 rpm for 10 minutes at room temperature. Supernatants (200 μL) were collected and transferred to a new 96 well plate for analysis.\nAn 8 point cGMP (Sigma-Aldrich P/N: G6129) standard curve was prepared in assay buffer ranging from 0.156-20 μM. Samples for the cGMP standard curve were then diluted with an equal volume of methanol resulting in final cGMP concentrations of 0.078-10 μM.\nThe cGMP standard curve was generated using GraphPad Prism Software.\nCalculations: Specific Activity was determined by the amount of cGMP formed (nmoles) per mg of sGC per min. Enzyme “fold-change” was calculated by dividing Specific Activity for test compounds by Specific Activity of DMSO controls.\nEnzyme assays were performed as described above, but was done in the presence of 1 μM sodium nitroprusside (SNP)."}, "[4]": {"settings": "read-out: HEK WC Assay (% Emax at 10 μM/with 10 uM SNP)"}, "[5]": {"settings": "read-out: HEK WC Assay (% Emax at 30 μM/with 10 uM SNP)"}, "[6]": {"settings": "read-out: HEK WC Assay (% Emax at 10 uM/with 10 uM SNP)"}, "[7]": {"settings": "read-out: HEK WC Assay (% Emax at 30 uM/with 10 uM SNP)"}},
  "note": "Read-outs that look alike come from different tables or passages of the source.",
  "data": [
    {"smiles": "COC(=O)N(C)c1c(N)nc(-c2cc(-c3ccccn3)n(Cc3ccccc3F)n2)nc1N", "note": "[Compound I-88]", "values": [
      {"measurement": "Emax at 10 µM", "setting": "[1]; [4]", "result": "0 to 10", "unit": "%"},
      {"measurement": "Emax at 30 µM", "setting": "[1]; [5]", "result": "0 to 10", "unit": "%"},
      {"measurement": "sGC Enzyme (fold increase at 30 μM)", "setting": "[2]", "result": "A (A = no increase to <2 fold increase)"},
      {"measurement": "sGC Enzyme (fold increase at 30 μM with SNP)", "setting": "[3]; with the addition of SNP", "result": "A (A = no increase to <2 fold increase)"}
    ]},
    {"smiles": "Nc1nc(-c2cc(-c3ccon3)n(Cc3ccccc3F)n2)ncc1C(=O)O", "note": "[Compound I-132]", "values": [
      {"measurement": "Emax at 10 µM", "setting": "[1]; [4]", "result": "40 to 60", "unit": "%"},
      {"measurement": "Emax at 30 µM", "setting": "[1]; [5]", "result": "20 to 40", "unit": "%"},
      {"measurement": "sGC Enzyme (fold increase at 30 μM)", "setting": "[2]", "result": "B (B = 2 to <5 fold increase)"},
      {"measurement": "sGC Enzyme (fold increase at 30 μM with SNP)", "setting": "[3]; with the addition of SNP", "result": "C (C = 5 to <10 fold increase)"}
    ]},
    {"smiles": "Nc1nc(-c2cc(-c3ccon3)n(Cc3ccccc3F)n2)ncc1-c1cccnc1", "note": "[Compound I-127]", "values": [
      {"measurement": "Emax at 10 µM", "setting": "[1]; [4]", "result": "60 to 80", "unit": "%"},
      {"measurement": "Emax at 30 µM", "setting": "[1]; [5]", "result": "60 to 80", "unit": "%"},
      {"measurement": "sGC Enzyme (fold increase at 30 μM)", "setting": "[2]", "result": "C (C = 5 to <10 fold increase)"},
      {"measurement": "sGC Enzyme (fold increase at 30 μM with SNP)", "setting": "[3]; with the addition of SNP", "result": "D (D = 10 to <30 fold increase)"}
    ]},
    {"smiles": "COC(=O)Nc1c(N)nc(-c2cc(-c3ccccn3)n(Cc3ccccc3F)n2)nc1N", "note": "[Compound I-89]", "values": [
      {"measurement": "Emax at 10 µM", "setting": "[1]; [4]", "result": "0 to 10", "unit": "%"},
      {"measurement": "Emax at 30 µM", "setting": "[1]; [5]", "result": "0 to 10", "unit": "%"},
      {"measurement": "sGC Enzyme (fold increase at 30 μM)", "setting": "[2]", "result": "A (A = no increase to <2 fold increase)"},
      {"measurement": "sGC Enzyme (fold increase at 30 μM with SNP)", "setting": "[3]; with the addition of SNP", "result": "A (A = no increase to <2 fold increase)"}
    ]},
    {"smiles": "Cc1cc(-c2ccccn2)nn1Cc1ccccc1F", "note": "[Compound I-55]", "values": [
      {"measurement": "Emax at 10 µM", "setting": "[1]; [6]", "result": "10 to 20", "unit": "%"},
      {"measurement": "Emax at 30 µM", "setting": "[1]; [7]", "result": "20 to 40", "unit": "%"},
      {"measurement": "sGC Enzyme (fold increase at 10 μM without SNP)", "setting": "[2]", "result": "A (A = no increase to <2 fold increase)"},
      {"measurement": "sGC Enzyme (fold increase at 30 μM without SNP)", "setting": "[2]", "result": "B (B = 2 to <5 fold increase)"},
      {"measurement": "sGC Enzyme (fold increase at 10 μM with SNP)", "setting": "[3]; with 1 μM SNP", "result": "B (B = 2 to <5 fold increase)"},
      {"measurement": "sGC Enzyme (fold increase at 30 μM with SNP)", "setting": "[3]; with 1 μM SNP", "result": "B (B = 2 to <5 fold increase)"}
    ]},
    {"smiles": "Cc1cc(N)nc(-c2cc(-c3ccon3)n(Cc3ccccc3F)n2)n1", "note": "[Compound I-111]", "values": [
      {"measurement": "Emax at 10 µM", "setting": "[1]; [4]", "result": "60 to 80", "unit": "%"},
      {"measurement": "Emax at 30 µM", "setting": "[1]; [5]", "result": "40 to 60", "unit": "%"},
      {"measurement": "sGC Enzyme (fold increase at 30 μM)", "setting": "[2]", "result": "B (B = 2 to <5 fold increase)"},
      {"measurement": "sGC Enzyme (fold increase at 30 μM with SNP)", "setting": "[3]; with the addition of SNP", "result": "C (C = 5 to <10 fold increase)"}
    ]},
    {"smiles": "COc1ccc(-c2cc(-c3ccccn3)nn2Cc2ccccc2F)cc1", "note": "[Compound I-40]", "values": [
      {"measurement": "Emax at 10 µM", "setting": "[1]; [6]", "result": "0 to 10", "unit": "%"},
      {"measurement": "Emax at 30 µM", "setting": "[1]; [7]", "result": "0 to 10", "unit": "%"},
      {"measurement": "sGC Enzyme (specific activity at 10 μM)", "setting": "[2]", "result": "C (C = 100 to <200)"},
      {"measurement": "sGC Enzyme (fold increase at 10 μM without SNP)", "setting": "[2]", "result": "A (A = no increase to <2 fold increase)"},
      {"measurement": "sGC Enzyme (specific activity at 30 μM)", "setting": "[2]", "result": "C (C = 100 to <200)"},
      {"measurement": "sGC Enzyme (fold increase at 30 μM without SNP)", "setting": "[2]", "result": "A (A = no increase to <2 fold increase)"},
      {"measurement": "sGC Enzyme (fold increase at 10 μM with SNP)", "setting": "[3]; with 1 μM SNP", "result": "A (A = no increase to <2 fold increase)"},
      {"measurement": "sGC Enzyme (fold increase at 30 μM with SNP)", "setting": "[3]; with 1 μM SNP", "result": "B (B = 2 to <5 fold increase)"}
    ]},
    {"smiles": "Nc1cc(N)nc(-c2cc(-c3ccon3)n(Cc3ccccc3F)n2)n1", "note": "[Compound I-103, 2-(1-(2-fluorobenzyl)-5-(isoxazol-3-yl)-1H-pyrazol-3-yl)pyrimidine-4,6-diamine]", "values": [
      {"measurement": "Emax at 10 µM", "setting": "[1]; [4]", "result": "20 to 40", "unit": "%"},
      {"measurement": "Emax at 30 µM", "setting": "[1]; [5]", "result": "20 to 40", "unit": "%"},
      {"measurement": "sGC Enzyme (fold increase at 30 μM)", "setting": "[2]", "result": "A (A = no increase to <2 fold increase)"},
      {"measurement": "sGC Enzyme (fold increase at 30 μM with SNP)", "setting": "[3]; with the addition of SNP", "result": "B (B = 2 to <5 fold increase)"}
    ]},
    {"smiles": "Fc1ccccc1Cn1nc(-c2ccccn2)cc1C1CCCCC1", "note": "[Compound I-48]", "values": [
      {"measurement": "Emax at 10 µM", "setting": "[1]; [6]", "result": "0 to 10", "unit": "%"},
      {"measurement": "Emax at 30 µM", "setting": "[1]; [7]", "result": "0 to 10", "unit": "%"},
      {"measurement": "sGC Enzyme (specific activity at 10 μM)", "setting": "[2]", "result": "D (D = 200 to <500)"},
      {"measurement": "sGC Enzyme (fold increase at 10 μM without SNP)", "setting": "[2]", "result": "B (B = 2 to <5 fold increase)"},
      {"measurement": "sGC Enzyme (specific activity at 30 μM)", "setting": "[2]", "result": "E (E = 500 to <1000)"},
      {"measurement": "sGC Enzyme (fold increase at 30 μM without SNP)", "setting": "[2]", "result": "B (B = 2 to <5 fold increase)"},
      {"measurement": "sGC Enzyme (fold increase at 10 μM with SNP)", "setting": "[3]; with 1 μM SNP", "result": "B (B = 2 to <5 fold increase)"},
      {"measurement": "sGC Enzyme (fold increase at 30 μM with SNP)", "setting": "[3]; with 1 μM SNP", "result": "C (C = 5 to <10 fold increase)"}
    ]},
    {"smiles": "Cc1ccc(-c2cc(-c3ccccn3)nn2Cc2ccccc2F)nc1", "note": "[Compound I-56]", "values": [
      {"measurement": "Emax at 10 µM", "setting": "[1]; [6]", "result": "0 to 10", "unit": "%"},
      {"measurement": "Emax at 30 µM", "setting": "[1]; [7]", "result": "0 to 10", "unit": "%"},
      {"measurement": "sGC Enzyme (specific activity at 10 μM)", "setting": "[2]", "result": "B (B = 50 to <100)"},
      {"measurement": "sGC Enzyme (fold increase at 10 μM without SNP)", "setting": "[2]", "result": "A (A = no increase to <2 fold increase)"},
      {"measurement": "sGC Enzyme (specific activity at 30 μM)", "setting": "[2]", "result": "B (B = 50 to <100)"},
      {"measurement": "sGC Enzyme (fold increase at 30 μM without SNP)", "setting": "[2]", "result": "A (A = no increase to <2 fold increase)"},
      {"measurement": "sGC Enzyme (fold increase at 10 μM with SNP)", "setting": "[3]; with 1 μM SNP", "result": "A (A = no increase to <2 fold increase)"},
      {"measurement": "sGC Enzyme (fold increase at 30 μM with SNP)", "setting": "[3]; with 1 μM SNP", "result": "A (A = no increase to <2 fold increase)"}
    ]}
  ]
}
